Reference: patent US20120040920A1, “OLIGOSACCHARIDE ALDONIC ACIDS AND THEIR TOPICAL USE” (priority 1999, published 2012)

How the values were obtained:
[1] = gel matrix formation on evaporation of an aqueous solution at room temperature; format: physicochemical
Excerpt: In contrast to an alpha hydroxyacid and polyhydroxyacid, an oligosaccharide aldonic acid can form a gel matrix when its aqueous solution is evaporated at room temperature. The transparent gel obtained retains certain amount of water forming a clear gel matrix. The amount of water retention depends on individual oligosaccharide aldonic acid. Examples of gel matrix preparations are provided below.
In one example, a gel matrix can be formed when aqueous solution comprising an oligosaccharide aldonic acid is evaporated at room temperature. The transparent gel thus obtained retains certain amount of water forming a clear gel matrix. The amount of water retention depends on individual oligosaccharide aldonic acid. For example, maltobionic acid 1 g in a beaker was dissolved in water 1 ml, and the solution thus obtained was left at room temperature. Fifty percent of the original water had been evaporated at the end of 24 hours, and 57% at the end of 48 hours, and 60% at the end of 72 hours, and no more or minimal evaporation of water could be detected after 72 hours. A clear gel film thus obtained contained 29% water complexed with maltobionic acid molecules. In the same manner, lactobionic acid formed a clear gel matrix with 14% water molecules and cellobionic acid formed a transparent gel with 7% water molecules.
A typical experiment to determine a gel matrix formation of an oligosaccharide aldonic acid may be carried out as follows.
Maltobionic acid 1 g in a beaker of 3.6 cm diameter and 3.6 cm height was dissolved in water 1 ml, and the solution thus obtained was left at room temperature between 20-25° C. to allow a slow evaporation of the water. […] The continuous transparent film thus obtained consisted of 71% maltobionic acid and 29% water by weight, and was formed as a complex gel matrix between maltobionic acid molecules and water molecules.

[2] = antioxidant property, hydroquinone test method; format: physicochemical; details: oil-in-water cream, 2% hydroquinone, test substance 0.4 M, room temperature, 5 days
Excerpt: An antioxidant may be defined as a substance capable of preventing or inhibiting oxidation. […] The antioxidant property is readily determined by using any one of the following test methods: prevention or retardation of air oxidation of (a) anthralin, (b) hydroquinone, or (c) banana peel. A freshly prepared anthralin solution or cream is bright yellow, and an air oxidized one is brownish or black. A hydroquinone solution or cream is colorless or white color, and an air oxidized one is brownish or black. A freshly peeled banana peel is light yellow in color and an oxidized one ranges in color from tan, dark tan, brown to brownish black.
Antioxidant property of an oligosaccharide aldonic acid may also be determined by utilizing hydroquinone test method as follows. Hydroquinone also known as 1,4-dihydroxybenzene is a white powder, and a composition containing hydroquinone without a suitable antioxidant is chemically unstable even at room temperature. For example, hydroquinone 2% in an oil-in-water cream changed in color from white to grey within 2 hours, and the cream became light brown within 48 hours and dark brown after 72 hours at room temperature.

[3] = tested on: skin changes associated with aging; assay: skin thickness of forearm by micrometer calipers after topical application; format: in vivo, human; details: twice daily, four weeks, person
Method: In one of the studies related to skin changes associated with aging, skin thickness was measured by micrometer calipers as follows:
The skin was grasped with a 2×6 cm metal hinge; the internal faces of which were coated with emery cloth to prevent slippage, and manually squeezed to threshold subject discomfort. Combined thickness of two whole-skin layers including thickness of the two hinge leaves was measured with micrometer calipers. Thickness of the two hinge leaves was subtracted to determine the actual thickness of two whole-skin layers. Triplicate measurements on treated sites were done and an average number was used for calculation of the skin thickness.
A subject, topically applied twice daily to their left forearm for four weeks lactobionic acid 22% in a solution prepared from water 7 parts and propylene glycol 3 parts. After four weeks their right forearm was still loose and relatively thin, and the skin was relatively rough and dry. […] While there was no change in skin thickness of their right forearm, their left forearm had increased 12% in skin thickness as measured by the micrometer calipers described in the Example.

[4] = tested on: scrotum and perineum itch; assay: topical treatment of scrotum and perineum itch; format: in vivo, human; details: 18% oil-in-water cream pH 2.0, person
Excerpt: Lactobionic acid 54% aqueous solution 30 g was uniformly mixed with an oil-in-water base 60 g. The cream thus prepared had pH 2.0 and contained 18% lactobionic acid.
A subject, having a lasting scrotum and perineum itch after each time taking a shower topically applied the above bionic acid cream to the affected areas of the skin.

[5] = tested on: circular wounds 0.5 mm in depth; assay: healing of circular 4 mm biopsy punch wounds on forearm; format: in vivo, human; details: 2% in distilled water
Excerpt: A sterile 4 mm skin biopsy punch was used to make two circular wounds 0.5 mm in depth on alcohol-swabbed left forearm of a healthy subject. The wounds were swabbed dry with cotton balls. A control solution containing 0.9% sodium chloride in distilled water was applied to one circular wound, and a test solution containing 2% lactobionic acid in distilled water was applied to the other circular wound. Both wounds were covered with 3M Tegaderm tapes for five days. […] The erythema disappeared from both skin sites at the end of nine days.

[6] = by weight, 1 g acid in 1 ml water evaporated at room temperature

## O=C(O)[C@H](O)[C@@H](O)[C@H](O[C@@H]1O[C@H](CO)[C@H](O)[C@H](O)[C@H]1O)[C@H](O)CO [lactobionic acid]
[1]; 1 g in 1 ml water, 20-25° C., slow evaporation
  gel matrix formation: clear continuous gel film was formed
[1]; [6]
  acid content of the gel film: 86%
  water retained in the gel film (gel matrix): 14%
[2]
  colour change of hydroquinone cream: did not change color
[3]; 22% in water/propylene glycol 7:3 solution, left forearm
  increase in skin thickness: 12%
[3]; 22% solution
  skin condition of treated forearm: more firm and plump, and the skin was smooth, soft and not dry
[4]
  itch: itch stopped immediately
[5]; covered five days, end of one week, saline control not epithelialized
  wound healing: healed with re-epithelialization
[5]; same at control site
  time to disappearance of erythema: nine
